Test results as given in ChEMBL document CHEMBL4706637, “Design, synthesis and biological evaluation of thioether-containing lenalidomide and pomalidomide derivatives with anti-multiple myeloma activity” (Eur J Med Chem, 2021).
Active and inactive are the calls of the source. The calls are words filed in the database; no cut-off is given here.

Legend:
[1] = Intrinsic clearance in human; type: ADME
MM1.S [2] = assay: Antiproliferative activity against human MM1.S cells assessed as reduction in cell growth measured after 7 days culturing by CellTiter 96 Aqueous non-radioactive cell proliferation assay; type: functional, cell-based; details: 168 h
[3] = Metabolic stability in human liver microsomes assessed as parent compound remaining; type: ADME, Microsome
MM1.S [4] = assay: Antitumor activity against human MM1.S cells xenografted in CB17-SCID mouse assessed as reduction in tumor weight at 60 mg/kg, po qd for 14 days and measured after 14 days; type: functional; details: 336 h, time 14 day
[5] = Half-life in human liver microsomes; type: ADME, Microsome
[6] = Intrinsic clearance in human liver microsomes measured per gm of protein; type: ADME, Microsome
[7] = Hepatic intrinsic clearance in human; type: ADME
[8] = target: Zinc finger protein Aiolos (Homo sapiens) (UniProt Q9UKT9); assay: Induction of IKZF3 degradation in human MM1.S cells assessed as reduction in IKZF3 level incubated for 12 hrs by immunoblot analysis; type: cell-based; details: dose 0.02-2 µM
[9] = target: DNA-binding protein Ikaros (Homo sapiens) (UniProt Q13422); assay: Induction of IKZF1 degradation in human MM1.S cells assessed as reduction in IKZF1 level incubated for 12 hrs by immunoblot analysis; type: cell-based; details: dose 0.02-2 µM
[10] = target: DNA-binding protein Ikaros (Homo sapiens) (UniProt Q13422); assay: Induction of IKZF1 degradation in human MM1.S cells assessed as reduction in IKZF1 level at 0.02 to 2 uM incubated for 12 hrs by immunoblot analysis; type: cell-based; details: dose 0.02-2 µM
[11] = target: Zinc finger protein Aiolos (Homo sapiens) (UniProt Q9UKT9); assay: Induction of IKZF3 degradation in human MM1.S cells assessed as reduction in IKZF3 level at 0.02 to 2 uM incubated for 12 hrs by immunoblot analysis; type: cell-based; details: dose 0.02-2 µM

Sequence of Zinc finger protein Aiolos (Homo sapiens) (Q9UKT9 whole entry): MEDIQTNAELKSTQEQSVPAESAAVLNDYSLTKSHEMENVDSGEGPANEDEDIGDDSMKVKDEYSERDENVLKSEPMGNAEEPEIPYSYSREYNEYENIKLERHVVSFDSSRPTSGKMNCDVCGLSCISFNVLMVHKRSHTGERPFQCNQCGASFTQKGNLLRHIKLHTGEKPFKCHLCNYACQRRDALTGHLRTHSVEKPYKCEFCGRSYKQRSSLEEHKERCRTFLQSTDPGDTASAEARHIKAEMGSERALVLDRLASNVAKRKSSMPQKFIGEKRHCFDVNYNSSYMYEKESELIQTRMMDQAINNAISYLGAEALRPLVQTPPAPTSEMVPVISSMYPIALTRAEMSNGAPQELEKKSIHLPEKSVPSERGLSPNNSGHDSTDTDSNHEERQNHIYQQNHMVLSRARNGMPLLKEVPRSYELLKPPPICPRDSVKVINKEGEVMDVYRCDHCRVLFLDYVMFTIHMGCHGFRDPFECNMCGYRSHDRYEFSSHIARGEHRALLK
Sequence of DNA-binding protein Ikaros (Homo sapiens) (Q13422 whole entry): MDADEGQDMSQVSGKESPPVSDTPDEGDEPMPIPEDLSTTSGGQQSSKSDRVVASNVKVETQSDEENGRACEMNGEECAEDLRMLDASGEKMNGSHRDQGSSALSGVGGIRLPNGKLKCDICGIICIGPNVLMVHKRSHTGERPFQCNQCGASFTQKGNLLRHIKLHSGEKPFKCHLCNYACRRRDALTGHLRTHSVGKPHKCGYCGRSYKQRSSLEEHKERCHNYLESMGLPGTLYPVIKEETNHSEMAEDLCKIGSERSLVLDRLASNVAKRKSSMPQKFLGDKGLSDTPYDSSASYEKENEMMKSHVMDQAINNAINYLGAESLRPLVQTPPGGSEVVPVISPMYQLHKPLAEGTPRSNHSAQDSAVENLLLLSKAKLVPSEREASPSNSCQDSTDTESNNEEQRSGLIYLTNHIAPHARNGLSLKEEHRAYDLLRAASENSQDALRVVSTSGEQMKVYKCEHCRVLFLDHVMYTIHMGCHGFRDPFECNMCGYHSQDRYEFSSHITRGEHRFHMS

Nc1cccc2c1CN(C1CCC(=O)NC1=O)C2=O (stereo unspecified) [LENALIDOMIDE]
CL [1]: 138.7 mL/min
IC50 (MM1.S [2]): 0.081 µM
Stabilty [3]: 91.5%
inhibition in vivo at 60 mg/kg/day (MM1.S [4]): 62.6%
half-life [5]: 19.3 h
CLH [6]: 1.8 mL/min/g
CLH [7]: 127 mL/min

COc1ccccc1Sc1cccc2c1CN(C1CCC(=O)NC1=O)C2=O (stereo unspecified)
Activity [8]: Dose-dependent effect
Activity [9]: Dose-dependent effect

O=C1CCC(N2Cc3c(Sc4ccc(F)cc4)cccc3C2=O)C(=O)N1 (stereo unspecified)
Activity [10]: Active
Activity [11]: Active
